Assay results as given in patent US20190070170A1, “METHOD OF S[…]-1” (Macau University of Science and Technology, priority 2017, published 2019).

Key:
PGE2 = PGE2 production in LPS-stimulated RAW264.7 cells (ELISA); type: cell-based, mouse; settings: SIN 160, 320 or 640 μM or 0.5 μM DEX 1 h, then LPS 100 ng/ml 18 h
Experimental: RAW264.7 and A549 cell lines were obtained from American Type Culture Collection (ATCC, Manassas, Va., USA) and maintained in DMEM (RAW264.7) or 1640 (A549) medium containing 10% FBS (Gibco-BRL, Grand Island, N.Y., USA) and antibiotics at 37° C. in a humidified atmosphere containing 5% CO2. RAW264.7 cells were plated in 6-well plates at a density of 4×10^5 cells and incubated for 24 h, then the cells were pretreated with different concentrations of SIN for 1 h before stimulating with LPS (100 ng/ml). A549 cells were seeded in 6-well plates at a density of 1×10^5 cells and incubated for 24 h, followed by pretreatment with SIN. A549 cells were then stimulated by IL-1β (1 ng/ml).
RAW264.7 cells and rat peritoneal macrophages were seeded in a 96-well plate at density of 1.4×10^4 and 1.5×10^5 cells, respectively. Various concentration of SIN was added to the cells for 1 hour before LPS stimulation. After stimulation with LPS for 18 h (RAW264.7 cells) or 24 h (rat peritoneal macrophages), MTT solution was added to each well and incubated for another 4 hours. 100 μl 10% SDS-HCl solution was added to each well for overnight to dissolve the formazan dye. The optical density was measured at 570 nm against a reference wavelength of 650 nm using a microplate UV/VIS spectrophotometer (Tecan, Mannedorf, Switzerland). […]

mPGES-1 = mPGES-1 mRNA level in LPS-activated rat peritoneal macrophages (qRT-PCR); type: cell-based; settings: SIN 1 h, LPS 12 h
Experimental: Peritoneal macrophages were cultured in 6-well plates and pre-treated with the indicated concentration of SIN for 1 h, followed by LPS stimulation for another 12 h. RNA was isolated from rat peritoneal macrophages using the Nucleospin RNA kit from Macherey-Nagel (Duren, Germany) according to the manufacturer's instructions. RNA concentration derived from each sample was assessed by NanoDrop UV Spectrophotometer from Thermo Scientific (Asheville, N.C., USA). RNA (1 μg) was reverse transcripted using the transcriptor universal cDNA master reagents from Roche Applied Science (Mannheim, Germany). Gene expression quantification was performed by a high-productivity real-time quantitative PCR ViiA™ 7 machine using SYBR Green reagents from Roche Applied Science (Mannheim, Germany) according a standard protocol recommended by the manufacturer and the cycling parameters were as followed: uracil removal incubation (50° C., 2 min), polymerase activation (95° C., 10 min), 40 cycles of denaturation (95° C., 15 s) and annealing/extension (60° C., 30 s) and a melt curve stage (95° C., 15 s, 60° C., 1 min and 95° C., 15 s).
Rat primers used in the research are listed as follows:
• The levels of gene expression were quantitated using the 2(−Delta Delta C(T)) method. […]

p65 = test: Nuclear translocation of p65 in LPS-stimulated RAW264.7 cells (immunofluorescence); type: cell-based, mouse; settings: 640 μM SIN 1 h, then LPS
Experimental: RAW 264.7 cells were seeded on glass coverslip at a density 2.0×10^5 cells/well in 6-well plates and incubated for 24 h. Cells were pretreated with 640 μM SIN for 1 h and followed stimulated by LPS (100 ng/ml) for another 1 h. Rat primary peritoneal macrophages were grown on glass coverslip at a density 4.5×10^6 cells/well in 6-well plates and pretreated with 640 μM SIN for 1 h, and then challenged with LPS (1 μg/ml) for another 30 min (for NF-κB) or 2 h (for C/EBPβ). Cells were fixed with 4% paraformaldehyde for 30 min at room temperature and then blocked for 1 h with 5% BSA in PBS containing 0.1% Triton X-100. Then incubated with a primary antibodies for overnight and followed by Alexa Fluor 594-labeled goat anti-rabbit IgG. Cells were washed three times, and stained with DAPI for 30 min. After a wash step, cells were fixed on the slide and the images were acquired using a LeicaDM2500 fluorescent microscope (Leica Microsystems GmbH, Wet-zlar, Germany).

NF-κB (mPGES-1 promoter) = target: T1, NF-κB (mPGES-1 promoter) (Rattus norvegicus, UniProt Q7TQN4); test: ChIP assay: NF-κB DNA binding to mPGES-1 promoter in LPS-stimulated rat peritoneal macrophages; type: cell-based; settings: 640 μM SIN 1 h, 1 μg/ml LPS 30 min
T1 construct: Peritoneal macrophages of SD rats were isolated; endogenous in cells; host or cells: primary peritoneal macrophages of SD rats
Experimental: Rat peritoneal macrophages were pretreated with 640 μM SIN (1 h) and stimulated with 1 μg/ml LPS (30 min) before fixation at room temperature for 10 min with 1% formaldehyde. Fixation was terminated by adding glycine (to 0.125 M) with an additional incubation of 5 min, then the cells were washed twice with ice-cold PBS and harvested by scraping and centrifugation (1500 rpm for 10 min at 4° C.). Cell lysis was performed using ChIP kit from abcam (Cambridge, UK) according to the manufacturer's instructions. Briefly, cell pellets were resuspended in 1 ml Buffer B by pipetting up and down several times in a microcentrifuge tube and incubated at room temperature for 10 min. After centrifugation at 5000 rpm, the pellet was collected and resuspended in ice cold Buffer C and incubated on ice for 10 min, followed by centrifugation (5,000 rpm for 10 min at 4° C.). The pellet was mixed with 100 μl Buffer D containing protease inhibitors, incubated on ice for 10 min and sonicated for 30 cycles in a Bioruptor UCD-300 sonicator (power on high, 30 s on, 30 s off per cycle), yielding DNA fragments of 150-200 bps (the size of sonicated chromatin was checked through running 2% agarose gel). Beads were blocked overnight in PBS with 0.5% BSA and then added to the samples. […]

T1 sequence (Q7TQN4 whole entry): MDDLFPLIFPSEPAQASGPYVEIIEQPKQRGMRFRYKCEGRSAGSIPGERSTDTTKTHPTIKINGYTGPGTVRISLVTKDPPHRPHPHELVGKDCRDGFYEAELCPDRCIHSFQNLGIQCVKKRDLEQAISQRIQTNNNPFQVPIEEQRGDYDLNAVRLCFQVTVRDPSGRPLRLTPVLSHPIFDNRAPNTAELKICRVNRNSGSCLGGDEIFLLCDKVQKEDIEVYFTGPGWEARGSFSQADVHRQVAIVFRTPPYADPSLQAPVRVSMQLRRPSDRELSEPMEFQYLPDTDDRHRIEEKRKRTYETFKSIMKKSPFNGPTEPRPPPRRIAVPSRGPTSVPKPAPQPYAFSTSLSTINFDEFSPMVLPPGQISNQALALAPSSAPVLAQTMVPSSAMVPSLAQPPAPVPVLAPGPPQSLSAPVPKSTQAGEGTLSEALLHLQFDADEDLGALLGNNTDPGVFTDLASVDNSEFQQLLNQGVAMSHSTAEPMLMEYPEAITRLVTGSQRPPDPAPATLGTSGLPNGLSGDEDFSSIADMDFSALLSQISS

COC1=C[C@@H]2[C@@H]3Cc4ccc(OC)c(O)c4[C@]2(CCN3C)CC1=O [SIN, sinomenine]
PGE2 production (PGE2): significant inhibition of PGE2 production in a dose dependent manner
mPGES-1 gene expression (mRNA) (mPGES-1): significantly and dose-dependently inhibited
nuclear translocation of p65 (p65): did not produce observable effects
DNA binding of NF-κB to the promoter of mPGES-1 (NF-κB (mPGES-1 promoter)): selectively inhibited
